Experimental data published in BindingDB's records for doi:10.1002/cbic.201600612 (University of Glasgow, 2017).

Tests used:
Coagulation factor XII = target: T1, Coagulation factor XII (Homo sapiens, UniProt P00748); assay: Protease Inhibition Assay; settings: pH 7.4
T1 sequence (P00748 whole entry): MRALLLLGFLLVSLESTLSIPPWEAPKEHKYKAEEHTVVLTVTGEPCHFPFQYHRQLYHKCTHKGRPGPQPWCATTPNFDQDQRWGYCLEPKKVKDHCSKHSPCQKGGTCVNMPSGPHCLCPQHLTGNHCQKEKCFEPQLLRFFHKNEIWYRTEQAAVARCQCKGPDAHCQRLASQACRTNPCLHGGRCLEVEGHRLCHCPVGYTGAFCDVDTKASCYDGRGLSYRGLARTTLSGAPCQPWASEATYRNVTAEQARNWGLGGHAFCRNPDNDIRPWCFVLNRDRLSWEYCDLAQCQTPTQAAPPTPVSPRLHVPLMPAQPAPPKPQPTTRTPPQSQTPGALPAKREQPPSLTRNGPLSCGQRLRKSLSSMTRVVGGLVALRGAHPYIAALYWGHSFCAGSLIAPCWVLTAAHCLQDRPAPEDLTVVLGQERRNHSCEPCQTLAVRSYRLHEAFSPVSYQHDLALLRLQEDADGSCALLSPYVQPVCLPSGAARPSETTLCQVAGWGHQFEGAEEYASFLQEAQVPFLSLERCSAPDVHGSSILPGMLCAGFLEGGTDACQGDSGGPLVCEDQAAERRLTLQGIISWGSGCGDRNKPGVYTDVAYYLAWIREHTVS
Protocol: (§1) The inhibition of plasma kallikrein and coagulation factor FXII was assessed by incubating the proteases with bicyclic peptide (twofold dilutions) and measuring the residual protease activity with fluorogenic substrates. The inhibition assays were performed in buffer ([…]) containing Tris HCl (pH 7.4, 10 mm), NaCl (150 mm), MgCl2 (10 mm), CaCl2 (1 mm), bovine serum albumin (BSA, 0.1 %, w/v), Triton-X100 (0.01%, v/v), and DMSO (5 %, v/v). Final concentrations of human plasma kallikrein (Innovative Research) and human FXII (Innovative Research)were 0.25 nm and 10 nm, respectively. The fluorogenic substrates Z-Phe-Arg-AMC (plasma kallikrein) and Z-Gly-Gly-Arg-AMC (FXII) were used at a final concentration of […]. Fluorescence intensity was measured with a Tecan Infinite M 200 Pro plate reader (λex= 368 nm, λem=468 nm).

Plasma kallikrein = Plasma kallikrein (Human, UniProt P03952); assay: Protease Inhibition Assay; settings: pH 7.4
Protocol: as §1

Chain of Plasma kallikrein (P03952 20-390 S143N limits assumed): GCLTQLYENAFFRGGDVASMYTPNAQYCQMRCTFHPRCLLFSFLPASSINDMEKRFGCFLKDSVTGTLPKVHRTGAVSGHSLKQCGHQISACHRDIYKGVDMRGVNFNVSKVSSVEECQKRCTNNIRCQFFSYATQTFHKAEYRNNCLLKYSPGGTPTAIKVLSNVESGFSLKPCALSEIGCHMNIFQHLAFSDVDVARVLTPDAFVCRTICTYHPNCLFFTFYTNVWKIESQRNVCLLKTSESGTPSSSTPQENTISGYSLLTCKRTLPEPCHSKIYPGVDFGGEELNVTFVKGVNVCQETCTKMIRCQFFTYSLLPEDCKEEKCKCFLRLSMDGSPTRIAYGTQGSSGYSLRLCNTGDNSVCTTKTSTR
Chain of Plasma kallikrein (P03952 391-638 limits assumed): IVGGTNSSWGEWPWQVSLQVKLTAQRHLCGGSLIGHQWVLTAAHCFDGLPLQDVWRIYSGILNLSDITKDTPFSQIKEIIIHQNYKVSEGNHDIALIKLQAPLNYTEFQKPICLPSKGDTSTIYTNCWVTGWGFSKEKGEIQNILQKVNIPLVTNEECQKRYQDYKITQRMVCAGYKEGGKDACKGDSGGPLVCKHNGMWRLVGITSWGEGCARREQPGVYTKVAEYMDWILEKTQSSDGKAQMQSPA

| Ki (Coagulation factor XII) [nM] | Ki (Plasma kallikrein) [nM] | Compound |
| --- | --- | --- |
| 25 | – | CSCCC(=O)N1CN(C(=O)CCSC)CN(C(=O)CCSC)C1 [TATA-FXII618 (14)] |
| 340 | 540 | CSCC(=O)N1CN(C(=O)CSC)CN(C(=O)CSC)C1 [TATB-FXII618 (15)] |
| – | 1.3 | CSCc1cc(CSC)cc(CSC)c1 [TBMB-PK15 (10)] |
| 1220 | 20 | CSCc1nc(CSC)nc(CSC)n1 [TBMT-FX618 (16)] |
